Measurements as given in US10322995B2, “Substituted cyano cycloalkyl penta-2,4-dienes, cyano cycloalkyl pent-2-en-4-ynes, cyano heterocyclyl penta-2,4-dienes and cyano heterocyclyl pent-2-en-4-ynes as active substances against abiotic plant stress” (BAYER CROPSCIENCE AKTIENGESELLSCHAFT, priority 2014, dated 2019).

Columns and labels:
[1] = tested on: Triticum aestivum (TRZAS); experiment: In vivo analyses Part A: drought stress, visual damage scoring, efficacy EF (TRZAS); details: spray application 25 g/ha, efficacy = reduction in damage intensity
Protocol: Seeds of monocotyledonous and dicotyledonous crop plants were sown in sandy loam in wood-fibre pots, covered with soil or sand and cultivated in a greenhouse under good growth conditions. The test plants were treated at the early leaf stage (BBCH10-BBCH13). To assure uniform water supply before commencement of stress, the potted plants were supplied with water by dam irrigation prior to substance application. The inventive compounds, formulated in the form of wettable powders (WP), were sprayed onto the green parts of the plants as an aqueous suspension at an equivalent water application rate of 600 I/ha with addition of 0.2% wetting agent (e.g. agrotin). Substance application was followed immediately by stress treatment of the plants. For this purpose, the pots were transferred in plastic inserts in order to prevent them from subsequently drying out too quickly. Drought stress was induced by gradual drying out under the following conditions: “Day”: 14 hours with illumination at 26° C. “Night”: 10 hours without illumination at 18° C. The duration of the respective stress phases was guided mainly by the condition of the stressed control plants. It was ended (by re-irrigating and transfer to a greenhouse with good growth conditions) as soon as irreversible damage was observed on the stressed control plants. The end of the stress phase was followed by an about 4-7-day recovery phase, during which the plants were once again kept under good growth conditions in a greenhouse. The duration of the recovery phase was guided mainly by when the trial plants had attained a state which enabled visual scoring of potential effects, and was therefore variable. Once this juncture was reached, the intensities of damage were scored visually in comparison to untreated, unstressed controls of the same age. The damage intensity was at first assessed in percent. […]

[2] = tested on: Triticum aestivum (TRZAS); experiment: In vivo analyses Part C: drought stress, appearance vs stressed control plants in categories (TRZAS); design: key: 0: no positive effect; 10: slight positive effect; 20: clear positive effect; 30: strong positive effect; details: appearance vs stressed control plants after recovery phase, efficacy range of 3-4 pots
Protocol: Seeds of monocotyledonous and dicotyledonous crop plants were sown in sandy loam in plastic or wood-fibre pots, covered with soil or sand and cultivated in a greenhouse under good growth conditions. The test plants were treated at the early leaf stage (BBCH10-BBCH13). To assure uniform water supply before commencement of stress, the potted plants were supplied with water by dam irrigation prior to substance application. The inventive compounds were first formulated as wettable powders (WP) or dissolved in a solvent mixture. The further dilution was effected with water supplemented with 0.2% wetting agent (e.g. agrotin). The finished spray liquor was sprayed onto the green parts of the plant at an equivalent water application rate of 600 I/ha. Substance application was followed immediately by stress treatment of the plants. For this purpose, the wood-fibre pots were transferred in plastic inserts in order to prevent them from subsequently drying out too quickly. Drought stress was induced by gradual drying out under the following conditions: “Day”: 14 hours with illumination at 26-30° C. “Night”: 10 hours without illumination at 18-20° C. The duration of the respective stress phases was guided mainly by the condition of the stressed control plants. It was ended (by re-irrigating and transfer to a greenhouse with good growth conditions) as soon as irreversible damage was observed on the stressed control plants. The end of the stress phase was followed by an about 4-7-day recovery phase, during which the plants were once again kept under good growth conditions in a greenhouse. The duration of the recovery phase was guided mainly by when the trial plants had attained a state which enabled visual scoring of potential effects, and was therefore variable. Once this juncture had been reached, the appearance of the plants treated with test substances was recorded in comparison to the stressed control plants by the following categories: [table] For each substance and dosage, 3-4 pots were treated and evaluated. TRZAS=Triticum aestivum

Brassica napus (BRSNS) = experiment: In vivo analyses Part C: drought stress, appearance vs stressed control plants in categories (BRSNS); design: key: 0: no positive effect; 10: slight positive effect; 20: clear positive effect; 30: strong positive effect; details: appearance vs stressed control plants after recovery phase, efficacy range of 3-4 pots
Protocol: Seeds of monocotyledonous and dicotyledonous crop plants were sown in sandy loam in plastic or wood-fibre pots, covered with soil or sand and cultivated in a greenhouse under good growth conditions. The test plants were treated at the early leaf stage (BBCH10-BBCH13). To assure uniform water supply before commencement of stress, the potted plants were supplied with water by dam irrigation prior to substance application. The inventive compounds were first formulated as wettable powders (WP) or dissolved in a solvent mixture. The further dilution was effected with water supplemented with 0.2% wetting agent (e.g. agrotin). The finished spray liquor was sprayed onto the green parts of the plant at an equivalent water application rate of 600 I/ha. Substance application was followed immediately by stress treatment of the plants. For this purpose, the wood-fibre pots were transferred in plastic inserts in order to prevent them from subsequently drying out too quickly. Drought stress was induced by gradual drying out under the following conditions: “Day”: 14 hours with illumination at 26-30° C. “Night”: 10 hours without illumination at 18-20° C. The duration of the respective stress phases was guided mainly by the condition of the stressed control plants. It was ended (by re-irrigating and transfer to a greenhouse with good growth conditions) as soon as irreversible damage was observed on the stressed control plants. The end of the stress phase was followed by an about 4-7-day recovery phase, during which the plants were once again kept under good growth conditions in a greenhouse. The duration of the recovery phase was guided mainly by when the trial plants had attained a state which enabled visual scoring of potential effects, and was therefore variable. Once this juncture had been reached, the appearance of the plants treated with test substances was recorded in comparison to the stressed control plants by the following categories: [table] For each substance and dosage, 3-4 pots were treated and evaluated. BRSNS=Brassica napus

CCOC(=O)/C=C(\C#CC(O)(C(C)C)C1(C#N)CC1)C1CC1 (stereo not drawn) [I.1-124, Ethyl (2Z)-6-(1-cyanocyclopropyl)-3-cyclopropyl-6-hydroxy-7-methyloct-2-en-4-ynoate]
EF [%] (TRZAS) [1]: >5%

CCC(C=CC(O)(c1ccccc1)C1(C#N)CC1)=CC(=O)O (racemic) [I.2-201]
Effect (TRZAS) ([2]; dosage 25 g/ha): 10 | Effect (BRSNS) (Brassica napus (BRSNS); dosage 250 g/ha): 10-30

CCOC(=O)/C=C(/C)C#CC(O)(C(C)C)C1(C#N)CC1 (stereo not drawn) [I.1-136]
EF [%] (TRZAS) [1]: >5%

CC/C(C#CC(O)(C1CCC1)C1(C#N)CC1)=C/C(=O)OC (stereo not drawn) [I.1-648]
Effect (TRZAS) ([2]; dosage 250 g/ha): 10-20 | Effect (BRSNS) (Brassica napus (BRSNS); dosage 25 g/ha): 30
